Test results as given in patent US12516022B2, “Derivatives of aryl hydrocarbon receptor agonists” (AZORA THERAPEUTICS, INC., priority 2021, dated 2026).

Tests used:
AhR [1] = molecular target: T1, AhR (Homo sapiens, UniProt P35869); experiment: AhR/arnt-luciferase reporter assay in human Huh7 cells
T1 sequence (P35869 11-848): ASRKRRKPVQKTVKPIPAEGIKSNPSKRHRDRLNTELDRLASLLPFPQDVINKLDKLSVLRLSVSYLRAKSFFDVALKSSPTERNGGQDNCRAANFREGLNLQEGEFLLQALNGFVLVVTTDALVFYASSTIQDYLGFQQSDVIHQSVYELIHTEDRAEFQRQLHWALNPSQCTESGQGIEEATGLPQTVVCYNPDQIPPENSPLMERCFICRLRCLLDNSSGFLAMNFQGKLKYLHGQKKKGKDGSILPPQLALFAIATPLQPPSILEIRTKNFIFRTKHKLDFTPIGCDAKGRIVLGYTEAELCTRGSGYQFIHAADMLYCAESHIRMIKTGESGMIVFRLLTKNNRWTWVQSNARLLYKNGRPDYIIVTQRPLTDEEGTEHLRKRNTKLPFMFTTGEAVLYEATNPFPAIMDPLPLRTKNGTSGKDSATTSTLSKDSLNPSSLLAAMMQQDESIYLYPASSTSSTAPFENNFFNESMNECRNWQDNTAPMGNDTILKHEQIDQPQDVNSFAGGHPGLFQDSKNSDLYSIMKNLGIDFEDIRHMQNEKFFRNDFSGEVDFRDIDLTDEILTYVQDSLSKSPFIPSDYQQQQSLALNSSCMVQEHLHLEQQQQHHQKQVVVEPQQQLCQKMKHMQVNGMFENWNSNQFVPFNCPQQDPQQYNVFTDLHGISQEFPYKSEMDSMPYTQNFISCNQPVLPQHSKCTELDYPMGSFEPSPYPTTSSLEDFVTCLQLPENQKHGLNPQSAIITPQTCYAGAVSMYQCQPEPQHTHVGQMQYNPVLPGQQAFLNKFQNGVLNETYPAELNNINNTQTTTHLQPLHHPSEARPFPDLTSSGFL
Method: (§1) TCDD and MeBio were included in the study as positive controls. These were added into cell culture media containing charcoal-stripped fetal bovine serum to produce a 2× stock and then added to the reporter cells. The reporter cells were human Huh7 cells or Rat H4IIE cell lines with the native AhR and an AhR/arnt-Luciferase reporter vector. The final concentration of DM50 was 0.1%. Cells were incubated for 22 hours at 37° C. prior to addition of the luciferase detection reagent and measurement of activity in relative luminescence units.

[2] = system: dextran sodium sulfate (DSS)-induced acute colitis; experiment: DSS-induced acute colitis mouse model, Compound 8 (Example 6); type: in vivo, C57 BL/6J mice; settings: mice, 2 mg/kg/day oral gavage twice daily, 9 day test period
Method: Eight week old female C57 BL/6J mice, around 20 g body weight purchased from Charles River Laboratories were bred in specific pathogen free IVC cages (4 mice in each cage) in a temperature controlled (20±2° C.) room with a 12 hour light-dark cycle. Chow pellets and tap water were available ad libitum. All experimental protocols were approved by the Institutional Animal Care and Use Committee. The mice were acclimated at the animal facility for at least of three days before the experiments.
To generate dextran sodium sulfate (DSS)-induced acute colitis, the mice were induced with 3% DSS (molecular weight 36,000-50,000; MP Biomedicals, Santa Ana, CA, USA) in their drinking water for 7 consecutive days, and then switched to normal water. DSS solution was freshly prepared and changed daily. These mice were euthanized on day 8 (9th day of the experiment).
The mice were divided into groups with eight mice in each group. Mice were dosed with either 2 mg/kg/day Compound 8, twice daily in 200 μL distilled water (pH=7.0) by gavage from Day 0 to Day 9. Mice in the vehicle group were given only 200 μL distilled water by gavage.
Body weight and disease activity index (DAI) soring were recorded daily to assess the colitis. DAI score was the sum of the weight loss score, stool score and bleeding subscores. A blinded scoring system was employed to assess the colitis. […]

AhR [3] = molecular target: T2, AhR (Rattus norvegicus, UniProt P41738); experiment: AhR/arnt-luciferase reporter assay in rat H4IIE cells
T2 sequence (P41738 10-853): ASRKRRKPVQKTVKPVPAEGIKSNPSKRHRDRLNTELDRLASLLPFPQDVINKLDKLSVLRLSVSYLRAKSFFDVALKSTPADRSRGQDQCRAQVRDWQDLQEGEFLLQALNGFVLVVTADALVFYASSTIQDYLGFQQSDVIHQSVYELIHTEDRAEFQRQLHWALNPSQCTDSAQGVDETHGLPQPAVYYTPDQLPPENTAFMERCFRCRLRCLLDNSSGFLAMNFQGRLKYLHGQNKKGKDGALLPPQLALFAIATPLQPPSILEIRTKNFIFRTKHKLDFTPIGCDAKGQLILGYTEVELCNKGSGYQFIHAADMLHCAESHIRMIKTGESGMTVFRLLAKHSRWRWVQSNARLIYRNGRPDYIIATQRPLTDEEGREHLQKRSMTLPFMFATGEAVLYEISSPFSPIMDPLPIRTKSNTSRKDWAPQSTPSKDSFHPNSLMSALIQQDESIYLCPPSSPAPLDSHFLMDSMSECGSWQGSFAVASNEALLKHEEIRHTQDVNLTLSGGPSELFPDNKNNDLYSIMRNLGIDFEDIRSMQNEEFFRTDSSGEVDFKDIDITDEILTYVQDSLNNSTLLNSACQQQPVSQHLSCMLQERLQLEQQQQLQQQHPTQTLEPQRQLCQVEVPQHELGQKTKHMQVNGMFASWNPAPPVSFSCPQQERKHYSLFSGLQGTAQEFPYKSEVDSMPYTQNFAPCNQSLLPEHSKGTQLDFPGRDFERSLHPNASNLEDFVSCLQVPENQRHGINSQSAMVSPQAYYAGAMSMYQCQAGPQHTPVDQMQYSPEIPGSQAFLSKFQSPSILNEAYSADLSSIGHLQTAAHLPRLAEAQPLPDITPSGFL
Method: as §1

O=C1/C(=C2/C(=O)N(CO)c3ccccc32)Nc2ccccc21 [Compound 8]
EC50 (AhR [1]): 71.5 nM
Activation of the AhR compared with equimolar synthetic indirubin (AhR [1]; human Huh7 and rat H4IIE cells): activates the AhR to an equal or greater extent, and at the same or lower concentration, than an equimolar amount of synthetic indirubin
EC50 greater than the EC50 for indirubin (AhR [1]; human Huh7 cells): about 20%
Disease activity index (DAI) versus placebo [2]: lower disease activity index
EC50 (AhR [3]): 25.6 nM
